From patent US12037419B2 (The Feinstein Institutes for Medical Research, priority 2016, dated 2024) come the findings set out here.

One test addresses T1, sRAGE-C1q-HMGB1 complex.
T1 construct: soluble RAGE (sRAGE) was immobilized on the sensor chip; C1q purified from pooled normal human sera; purchased R&D Systems (hrRAGE); Complement Technology (C1q)
Put plainly: RAGE-C1q-HMGB1 trimolecular complex formation (SPR and C1q-coated beads). It is filed as binding, human. The settings on record: sRAGE immobilized, C1q 200 nM, HMGB1 500 nM, either order. On the procedure:
The dissociation time was set for 1 minute.
Trimolecular complex assay: Biotinylated-C1q (20 μg/ml) was precoated to SpeedBeads™ (Streptavidin-conjugated microbeads, Thermo Scientific). Beads were saturated with HMGB1, then incubated with RAGE.

The subject of another test is human monocytes. Briefly: SeaHorse cellular flux assay (OCR, ECAR). Format: cell-based. The settings on record: C1q 25 μg ml-1 together with HMGB1 3 μg/ml, 24 h. The protocol:
Cell metabolism analysis using SeaHorse Cellular Flux assay. […] One hour prior to measurement, culture medium was exchanged for assay medium (unbuffered DMEM (Sigma), supplemented with 10 mM Glucose, 1 mM Pyruvate and 2 mM Glutamine for mitochondrial assays, or with 2 mM Glutamine alone for glycolytic assays. Reagents were injected during the measurement to achieve final concentrations of oligomycin (1 μM), carbonyl cyanide p-(trifluoromethoxy) phenylhydrazone (FCCP) ([…]), Rotenone/antimycin A (0.5 μM). Glucose (10 mM), and 2-Deoxy-D glucose (50 mM). Oxygen consumption rate (OCR) and Extracellular acidification rate (ECAR) values were measured using a SeaHorse XfP instrument (SeaHorse bioscience). Measured values were normalized to the number of live cells present in each well as determined by a trypan blue staining by the end of each run. For OCR/ECAR ratio calculations, an average of the last two basal readings was used for both OCR and ECAR.

A further test concerns the target T2, RAGE and LAIR-1 (Homo sapiens, UniProt Q15109+Q6GTX8).
T2 construct: endogenous in cells; host or cells: primary human monocytes from blood of healthy donors
Put plainly: Proximity ligation assay (PLA) for colocalization of RAGE and LAIR-1 on monocytes. Format: cell-based. The protocol:
Cells were then incubated overnight with a primary antibody pair directed to rabbit anti-RAGE (ab3611, Abcam) and to mouse anti-LAIR-1 (BD Bioscience), respectively. The cells were incubated with corresponding PLA probes conjugated to oligonucleotides (mouse MINUS and rabbit PLUS), then followed by ligation and rolling circle amplification in close proximity. Images were acquired using an AxioImage Z1 (Zeiss) apotome enabled (Zeiss) Fluorescent-intensity analysis of the images was performed using Zen2 (Zeiss).
Immunofluorescence Microscopy: In situ proximal ligation assay was performed according to manufacturer's protocol (Duolink, Sigma). Following stimulation, human monocytes were washed three times with ice-cold PBS and were fixed with 4% (wt/vol) PFA for 1 hour at room temperature, seeded (2×10^5 cells) on slides using cytospin (Shandon), permeablized with chilled MeOH for 4 min and with PBS/0.1% (vol/vol) Triton X-100 and blocked for 1 h at room temperature. Cells were then incubated overnight with a primary antibody pair directed to rabbit anti-RAGE (ab3611, Abcam) and to mouse anti-LAIR-1 (BD Bioscience), respectively. The cells were incubated with corresponding PLA probes conjugated to oligonucleotides (mouse MINUS and rabbit PLUS), then followed by ligation and rolling circle amplification in close proximity. […] Quantification was performed using Zen2 (Zeiss). […]

The test system of test [1] is RAGE, LAIR-1, SHP-1, NF-κB signaling pathway. Briefly: Immunoprecipitation, Western blot, phospho-immunoreceptor array and p65 nuclear translocation in monocytes. Format: cell-based, human. On the procedure: Immunofluorescence Microscopy: In situ proximal ligation assay was performed according to manufacturer's protocol (Duolink, Sigma). Following stimulation, human monocytes were washed three times with ice-cold PBS and were fixed with 4% (wt/vol) PFA for 1 hour at room temperature, seeded (2×10^5 cells) on slides using cytospin (Shandon), permeablized with chilled MeOH for 4 min and with PBS/0.1% (vol/vol) Triton X-100 and blocked for 1 h at room temperature. Cells were then incubated overnight with a primary antibody pair directed to rabbit anti-RAGE (ab3611, Abcam) and to mouse anti-LAIR-1 (BD Bioscience), respectively. The cells were incubated with corresponding PLA probes conjugated to oligonucleotides (mouse MINUS and rabbit PLUS), then followed by ligation and rolling circle amplification in close proximity. Images were acquired using AxioVision software and a confocal microscope (Olympus). Quantification was performed using Zen2 (Zeiss). […] Cells were washed three times with cold-PBS and fixed with 4% PFA and stained with PECy5-anti-human CD14 antibody (BD biosciences) or propidium iodide (PI). […] PI or DAPI was used for nuclear staining. […] After washing, cells were stained with Alexa Fluor 594 anti-rabbit IgG (Life Technologies), and mounted DAPI-containing medium. Images were acquired using an AxioImage Z1 (Zeiss) apotome enabled (Zeiss) Fluorescent-intensity analysis of the images was performed using Zen2 (Zeiss).
Immunoprecipitation and Western blot. Total protein extracts were prepared as described (22). Monocytes (2-5×10^6 cells/ml) were washed in ice-cold PBS and lysed in 1×RIPA buffer containing complete protease inhibitor mixture (Roche) and phosphatase inhibitor (Pierce) for 1 h on ice. For immunoprecipitation, anti-LAIR-1 antibody (BD Bioscience) or anti-RAGE antibody (Abcam) was incubated with the lysate overnight at 4° C. prior to being incubated with protein G-dynabeads (Life Technologies). Proteins were then separated by SDS-PAGE, transferred to nitrocellulose or PVDF membranes, and immunoblotted with appropriate antibodies. Bands were detected using the ECL reagent (Thermo Scientific) or using the Odyssey Infrared Imaging system (LI-COR) to detect secondary antibodies conjugated with Infrared 680 or 800.
Phospho-immunoreceptor array: Tyrosine phosphorylated LAIR-1 was determined by human phosphoimmunoreceptor array (Proteome Profiler Array; R&D systems) according to the manufacturer's protocol and as described (22). Phosphorylation levels of individual analytes were determined by average pixel density of duplicate spots; values were obtained after subtraction of background and were normalized to positive control spots.

T2 sequence (Q15109 23-404): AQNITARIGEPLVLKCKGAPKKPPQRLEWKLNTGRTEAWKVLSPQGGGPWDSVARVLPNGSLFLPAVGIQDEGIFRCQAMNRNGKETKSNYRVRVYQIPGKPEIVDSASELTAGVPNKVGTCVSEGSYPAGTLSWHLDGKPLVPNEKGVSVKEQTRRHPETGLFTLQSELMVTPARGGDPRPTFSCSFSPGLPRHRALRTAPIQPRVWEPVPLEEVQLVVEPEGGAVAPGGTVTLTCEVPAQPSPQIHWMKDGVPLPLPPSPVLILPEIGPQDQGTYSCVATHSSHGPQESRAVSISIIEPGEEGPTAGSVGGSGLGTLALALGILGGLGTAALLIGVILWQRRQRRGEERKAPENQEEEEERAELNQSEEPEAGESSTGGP
T2 sequence (Q6GTX8 22-287): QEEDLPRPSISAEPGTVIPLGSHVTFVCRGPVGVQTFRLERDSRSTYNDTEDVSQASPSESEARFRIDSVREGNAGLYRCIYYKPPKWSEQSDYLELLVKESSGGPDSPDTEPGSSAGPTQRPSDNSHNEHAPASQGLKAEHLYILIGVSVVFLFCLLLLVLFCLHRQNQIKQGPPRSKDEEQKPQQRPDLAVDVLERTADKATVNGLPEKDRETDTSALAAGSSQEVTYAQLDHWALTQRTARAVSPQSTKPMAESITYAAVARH
T1 sequence (Q15109 23-342 limits assumed): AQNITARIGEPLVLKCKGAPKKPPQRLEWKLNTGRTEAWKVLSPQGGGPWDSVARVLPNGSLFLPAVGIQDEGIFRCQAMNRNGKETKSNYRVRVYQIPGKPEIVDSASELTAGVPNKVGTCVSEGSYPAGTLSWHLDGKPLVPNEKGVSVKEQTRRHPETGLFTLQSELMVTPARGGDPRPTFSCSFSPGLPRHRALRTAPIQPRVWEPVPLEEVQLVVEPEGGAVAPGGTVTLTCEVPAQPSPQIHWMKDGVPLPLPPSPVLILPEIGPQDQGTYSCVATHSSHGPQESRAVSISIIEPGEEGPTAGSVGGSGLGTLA
T1 sequence (P09429 whole entry, further chain): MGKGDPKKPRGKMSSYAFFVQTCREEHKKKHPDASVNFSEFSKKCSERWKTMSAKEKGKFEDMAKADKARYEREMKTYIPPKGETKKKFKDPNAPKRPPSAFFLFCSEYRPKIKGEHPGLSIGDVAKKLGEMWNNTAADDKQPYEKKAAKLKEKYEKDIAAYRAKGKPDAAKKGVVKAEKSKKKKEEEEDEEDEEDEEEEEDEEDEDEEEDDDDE
T1 sequence (P02745 23-245, further chain): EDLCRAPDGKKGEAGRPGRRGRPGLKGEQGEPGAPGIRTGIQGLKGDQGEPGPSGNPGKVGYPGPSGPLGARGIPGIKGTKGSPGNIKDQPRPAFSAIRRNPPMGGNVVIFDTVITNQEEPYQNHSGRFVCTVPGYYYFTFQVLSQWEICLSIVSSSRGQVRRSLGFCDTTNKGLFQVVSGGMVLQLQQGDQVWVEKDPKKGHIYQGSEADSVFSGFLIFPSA
T1 sequence (P02746 28-253, further chain): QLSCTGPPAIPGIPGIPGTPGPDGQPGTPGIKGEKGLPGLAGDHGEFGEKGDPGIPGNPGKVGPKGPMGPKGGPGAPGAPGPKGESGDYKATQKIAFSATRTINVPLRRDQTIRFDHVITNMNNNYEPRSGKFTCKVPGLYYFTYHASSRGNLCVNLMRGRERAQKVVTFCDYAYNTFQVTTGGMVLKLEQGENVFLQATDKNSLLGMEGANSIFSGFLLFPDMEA
T1 sequence (P02747 29-245, further chain): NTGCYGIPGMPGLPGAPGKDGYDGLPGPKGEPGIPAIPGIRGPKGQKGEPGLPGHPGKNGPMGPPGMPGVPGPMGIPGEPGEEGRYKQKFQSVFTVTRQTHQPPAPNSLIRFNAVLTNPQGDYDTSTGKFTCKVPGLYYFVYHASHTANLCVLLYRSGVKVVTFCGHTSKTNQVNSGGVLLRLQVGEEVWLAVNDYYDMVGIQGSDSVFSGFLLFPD

With “C1q: C1q purified from pooled normal human sera, obtained from Complement Technology”, the “trimolecular complex formation with HMGB1 and sRAGE” value with sRAGE-C1q-HMGB1 complex is “formed a trimolecular complex”. The “HMGB1-induced alteration in cellular metabolism” value with human monocytes is reported as “prevented the alteration in cellular metabolism”. Further, in the test with RAGE and LAIR-1 (C1q with or without HMGB1), the “RAGE-LAIR-1 colocalization (PLA fluorescence)” value is given as “only detected in the presence of C1q”. For the same substance, the “RAGE-LAIR-1 cross-linking with C1q co-incubated with LAIR-2” value in the test with RAGE and LAIR-1 (data not shown) is “negated the cross-linking of RAGE and LAIR-1”. Further, the “phosphorylation of LAIR-1” value in test [1] was “induces phosphorylation of LAIR-1”. The “HMGB1-induced activation and nuclear translocation of NF-κB” value in test [1] (P-IKKα, p65, 1 h) is “inhibited the downstream activation and nuclear translocation of NF-κB”. Moreover, the “recruitment of SHP-1 to LAIR-1” value in test [1] (both HMGB1 and C1q present) was “more SHP-1 is recruited to LAIR-1”. Besides, the “HMGB1-induced phosphorylation of RAGE” value in test [1] (in the presence of C1q) is listed as “diminished”.
